According to ChEMBL document CHEMBL1124282, “Synthesis of fluorescent muramyl dipeptide congeners. 2” (1988):

Columns and labels:
Cavia porcellus [1] = species: Cavia porcellus; experiment: Adjuvant activity was determined by the ability of compound to stimulate delayed hypersensitivity by intradermal injection of 10 ug of ovalbumin after 48 hr in guinea pigs; assay type: functional
Cavia porcellus [2] = species: Cavia porcellus; experiment: Antibody response to the compound was determined in guinea pigs; assay type: functional

| Structure (SMILES) | DTH (Cavia porcellus [1]) | Antibody response (Cavia porcellus [2]) |
| --- | --- | --- |
| COc1ccc2c(c1)Oc1cc(O)ccc1/C2=C1C=C/C(=N/c2nc(O)nc(NCCCC[C@H](NC(=O)[C@@H](C)OC3C(O)C(CO)OC(O)C3NC(C)=O)C(=O)N[C@H](CCC(=O)O)C(N)=O)n2)C=C\1C(=O)O (stereo partly drawn) | 2.9 | 17.6 |
| COc1ccc2c(c1)Oc1cc(O)ccc1/C2=C1C=C/C(=N/c2nc(O)nc(NCCCC[C@H](NC(=O)CC[C@@H](NC(=O)[C@H](C)NC(=O)[C@@H](C)OC3C(O)C(CO)OC(O)C3NC(C)=O)C(N)=O)C(=O)O)n2)C=C\1C(=O)O (stereo partly drawn) | 20.2 | 192 |
| COc1ccc2c(c1)Oc1cc(O)ccc1/C2=C1C=C/C(=N/c2nc(O)nc(OCC3OC(O)C(NC(C)=O)C(O[C@H](C)C(=O)N[C@@H](C)C(=O)N[C@H](CCC(=O)O)C(N)=O)C3O)n2)C=C\1C(=O)O (stereo partly drawn) | 11.5 | 123.34 |
| CC(=O)N[C@H]1C(O)O[C@H](CO)[C@@H](O)[C@@H]1O[C@H](C)C(=O)N[C@@H](C)C(=O)N[C@H](CCC(=O)O)C(N)=O (stereo partly drawn) [MURAMYL DIPEPTIDE] | 10.6 | 82.49 |
